Earlier results on one substance are cited in US20060159689A1, “Combinations of tumor-associated antigens in diagnostics for various types of cancers” (priority 2004, published 2006).

The subject of the series is VEGF-A. The following applies: colorectal, lung, breast, ovarian carcinoma and other cancers.

Chain of VEGF-A (P15692 207-311 limits assumed): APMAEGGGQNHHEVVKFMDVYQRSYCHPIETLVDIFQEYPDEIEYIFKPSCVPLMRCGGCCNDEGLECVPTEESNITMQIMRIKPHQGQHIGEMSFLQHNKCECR

In the case of bevacizumab, the “effect on tumor progression and metastatic disease” value was “control of tumor progression and metastatic disease”.
